Results from the NIST ThermoML archive (doi:10.1016/j.jct.2012.12.001).
“And” between values parts separate entries of the source, which are not always exact repeats. Identical values can stand only once. ± gives the expanded uncertainty stated by the source.

Experiment: heat capacity at constant pressure per volume; xn = mol fraction of the nth substance listed
Settings: 101 kPa, Liquid, DSC, x2 = 0.695

CCCCCCCCCCCCCCCCC [heptadecane] + N#Cc1ccccc1
Settings | heat capacity
298.05 K | 1856100 ± 20000 J/K/m3
298.14 K | 1849900 ± 20000 J/K/m3
298.24 K | 1857600 ± 20000 J/K/m3
298.34 K | 1869500 ± 20000 J/K/m3
298.44 K | 1867300 ± 20000 J/K/m3 and 1868100 ± 20000 J/K/m3
298.54 K | 1868700 ± 20000 J/K/m3
298.63 K | 1857900 ± 20000 J/K/m3
298.73 K | 1860800 ± 20000 J/K/m3
298.83 K | 1865800 ± 20000 J/K/m3
298.93 K | 1874400 ± 20000 J/K/m3
299.02 K | 1881300 ± 20000 J/K/m3
299.12 K | 1876400 ± 20000 J/K/m3
299.22 K | 1870300 ± 20000 J/K/m3
299.32 K | 1856400 ± 20000 J/K/m3 and 1858200 ± 20000 J/K/m3
299.42 K | 1872800 ± 20000 J/K/m3
299.52 K | 1876300 ± 20000 J/K/m3
299.61 K | 1873800 ± 20000 J/K/m3
299.71 K | 1875400 ± 20000 J/K/m3
299.81 K | 1870400 ± 20000 J/K/m3
299.91 K | 1865300 ± 20000 J/K/m3
300 K | 1870300 ± 20000 J/K/m3
300.1 K | 1879700 ± 20000 J/K/m3
300.2 K | 1876100 ± 20000 J/K/m3
300.3 K | 1884400 ± 20000 J/K/m3
300.4 K | 1880100 ± 20000 J/K/m3
300.49 K | 1877500 ± 20000 J/K/m3
300.59 K | 1873500 ± 20000 J/K/m3
300.69 K | 1871300 ± 20000 J/K/m3
300.79 K | 1885700 ± 20000 J/K/m3 and 1882900 ± 20000 J/K/m3
300.89 K | 1883300 ± 20000 J/K/m3
300.98 K | 1885200 ± 20000 J/K/m3
301.08 K | 1880800 ± 20000 J/K/m3
301.18 K | 1881200 ± 20000 J/K/m3
301.28 K | 1861100 ± 20000 J/K/m3
301.37 K | 1877300 ± 20000 J/K/m3
301.47 K | 1892900 ± 20000 J/K/m3
301.57 K | 1896800 ± 20000 J/K/m3
301.67 K | 1885900 ± 20000 J/K/m3 and 1887800 ± 20000 J/K/m3
301.77 K | 1883300 ± 20000 J/K/m3
301.87 K | 1884700 ± 20000 J/K/m3
301.96 K | 1888400 ± 20000 J/K/m3
302.06 K | 1899800 ± 20000 J/K/m3
302.16 K | 1898500 ± 20000 J/K/m3
302.26 K | 1888500 ± 20000 J/K/m3
302.35 K | 1894400 ± 20000 J/K/m3
302.45 K | 1890300 ± 20000 J/K/m3
302.55 K | 1891200 ± 20000 J/K/m3
302.65 K | 1899800 ± 20000 J/K/m3 and 1900100 ± 20000 J/K/m3
302.75 K | 1891400 ± 20000 J/K/m3
302.85 K | 1889600 ± 20000 J/K/m3
302.95 K | 1885100 ± 20000 J/K/m3
303.15 K | 1906400 ± 20000 J/K/m3
303.35 K | 1896200 ± 20000 J/K/m3
303.45 K | 1894500 ± 20000 J/K/m3
303.55 K | 1902400 ± 20000 J/K/m3
303.65 K | 1898100 ± 20000 J/K/m3
303.75 K | 1898100 ± 20000 J/K/m3
303.85 K | 1893900 ± 20000 J/K/m3
304.05 K | 1908600 ± 20000 J/K/m3
304.15 K | 1904800 ± 20000 J/K/m3
304.25 K | 1897700 ± 20000 J/K/m3 and 1899000 ± 20000 J/K/m3
304.35 K | 1888500 ± 20000 J/K/m3 and 1889600 ± 20000 J/K/m3
304.45 K | 1900600 ± 20000 J/K/m3
304.55 K | 1901500 ± 20000 J/K/m3
304.65 K | 1903900 ± 20000 J/K/m3
304.75 K | 1894400 ± 20000 J/K/m3
304.85 K | 1881800 ± 20000 J/K/m3
304.95 K | 1915800 ± 20000 J/K/m3
305.05 K | 1912200 ± 20000 J/K/m3
305.15 K | 1901900 ± 20000 J/K/m3
305.25 K | 1924700 ± 20000 J/K/m3
305.35 K | 1907800 ± 20000 J/K/m3
305.45 K | 1925500 ± 20000 J/K/m3
305.55 K | 1943100 ± 20000 J/K/m3
305.65 K | 1963900 ± 20000 J/K/m3
305.75 K | 1942400 ± 20000 J/K/m3
305.85 K | 1924200 ± 20000 J/K/m3
305.95 K | 1983400 ± 20000 J/K/m3
306.05 K | 1910400 ± 20000 J/K/m3
306.15 K | 2011200 ± 20000 J/K/m3
306.25 K | 1898300 ± 20000 J/K/m3
306.35 K | 2003200 ± 20000 J/K/m3
306.45 K | 1935800 ± 20000 J/K/m3
306.55 K | 2021100 ± 20000 J/K/m3
306.65 K | 1945600 ± 20000 J/K/m3
306.75 K | 2006800 ± 20000 J/K/m3
306.85 K | 1978000 ± 20000 J/K/m3
307.05 K | 2038400 ± 22000 J/K/m3
307.15 K | 2126900 ± 28000 J/K/m3
307.25 K | 1846500 ± 38000 J/K/m3
307.35 K | 1804900 ± 21000 J/K/m3
307.45 K | 1791700 ± 20000 J/K/m3
307.55 K | 1787300 ± 20000 J/K/m3
307.65 K | 1779800 ± 20000 J/K/m3
307.75 K | 1775700 ± 20000 J/K/m3
307.85 K | 1767300 ± 20000 J/K/m3
307.95 K | 1764000 ± 20000 J/K/m3
308.05 K | 1758800 ± 20000 J/K/m3
308.15 K | 1759200 ± 20000 J/K/m3
308.23 K | 1750200 ± 20000 J/K/m3
308.35 K | 1756500 ± 20000 J/K/m3
308.45 K | 1756400 ± 20000 J/K/m3
308.55 K | 1753500 ± 20000 J/K/m3
308.65 K | 1748300 ± 20000 J/K/m3
308.75 K | 1746500 ± 20000 J/K/m3
308.85 K | 1745200 ± 20000 J/K/m3
308.95 K | 1748100 ± 20000 J/K/m3
309.05 K | 1747000 ± 20000 J/K/m3
309.14 K | 1747900 ± 20000 J/K/m3
309.25 K | 1743700 ± 20000 J/K/m3
309.35 K | 1742200 ± 20000 J/K/m3
309.45 K | 1738100 ± 20000 J/K/m3
309.55 K | 1735200 ± 20000 J/K/m3
309.65 K | 1738100 ± 20000 J/K/m3
309.75 K | 1736500 ± 20000 J/K/m3
309.85 K | 1737600 ± 20000 J/K/m3
309.95 K | 1740400 ± 20000 J/K/m3
310.05 K | 1736900 ± 20000 J/K/m3
310.15 K | 1731900 ± 20000 J/K/m3
310.25 K | 1735000 ± 20000 J/K/m3
310.35 K | 1732200 ± 20000 J/K/m3
310.45 K | 1727800 ± 20000 J/K/m3
310.55 K | 1733700 ± 20000 J/K/m3
310.65 K | 1733500 ± 20000 J/K/m3
310.75 K | 1728600 ± 20000 J/K/m3
310.85 K | 1733600 ± 20000 J/K/m3
310.95 K | 1730900 ± 20000 J/K/m3
311 K | 1732600 ± 20000 J/K/m3
311.1 K | 1732200 ± 20000 J/K/m3
311.2 K | 1728000 ± 20000 J/K/m3
311.3 K | 1725400 ± 20000 J/K/m3
311.4 K | 1724600 ± 20000 J/K/m3
311.5 K | 1725800 ± 20000 J/K/m3
311.6 K | 1729500 ± 20000 J/K/m3
311.7 K | 1732300 ± 20000 J/K/m3
311.8 K | 1728700 ± 20000 J/K/m3
311.9 K | 1728100 ± 20000 J/K/m3
312 K | 1725500 ± 20000 J/K/m3
312.1 K | 1723400 ± 20000 J/K/m3
312.2 K | 1722200 ± 20000 J/K/m3
312.3 K | 1721300 ± 20000 J/K/m3
312.4 K | 1724000 ± 20000 J/K/m3
312.5 K | 1727600 ± 20000 J/K/m3
312.6 K | 1725700 ± 20000 J/K/m3
312.7 K | 1727300 ± 20000 J/K/m3
312.8 K | 1722600 ± 20000 J/K/m3
312.9 K | 1722100 ± 20000 J/K/m3
313 K | 1720300 ± 20000 J/K/m3
313.1 K | 1719600 ± 20000 J/K/m3
313.2 K | 1723400 ± 20000 J/K/m3
313.3 K | 1724400 ± 20000 J/K/m3
313.4 K | 1725500 ± 20000 J/K/m3
313.5 K | 1720500 ± 20000 J/K/m3
313.6 K | 1717000 ± 20000 J/K/m3
313.7 K | 1718300 ± 20000 J/K/m3
313.8 K | 1719300 ± 20000 J/K/m3
313.9 K | 1720600 ± 20000 J/K/m3
314 K | 1725600 ± 20000 J/K/m3
314.1 K | 1722200 ± 20000 J/K/m3
314.2 K | 1723200 ± 20000 J/K/m3
314.3 K | 1718000 ± 20000 J/K/m3
314.4 K | 1717600 ± 20000 J/K/m3
314.5 K | 1721100 ± 20000 J/K/m3
314.6 K | 1727600 ± 20000 J/K/m3
314.7 K | 1722500 ± 20000 J/K/m3
314.8 K | 1716700 ± 20000 J/K/m3
314.9 K | 1717900 ± 20000 J/K/m3
315 K | 1715800 ± 20000 J/K/m3
315.1 K | 1719700 ± 20000 J/K/m3
315.2 K | 1722400 ± 20000 J/K/m3
315.3 K | 1721800 ± 20000 J/K/m3
315.4 K | 1717200 ± 20000 J/K/m3
315.5 K | 1714900 ± 20000 J/K/m3
315.6 K | 1718500 ± 20000 J/K/m3
315.7 K | 1724700 ± 20000 J/K/m3
315.8 K | 1719600 ± 20000 J/K/m3
315.9 K | 1715500 ± 20000 J/K/m3
316 K | 1715800 ± 20000 J/K/m3
316.1 K | 1715600 ± 20000 J/K/m3
316.2 K | 1721400 ± 20000 J/K/m3
316.3 K | 1718600 ± 20000 J/K/m3
316.4 K | 1718400 ± 20000 J/K/m3
316.5 K | 1717700 ± 20000 J/K/m3
316.6 K | 1724000 ± 20000 J/K/m3
316.7 K | 1724400 ± 20000 J/K/m3
316.8 K | 1719200 ± 20000 J/K/m3
317.16 K | 1722200 ± 20000 J/K/m3
317.2 K | 1722100 ± 20000 J/K/m3
317.31 K | 1721500 ± 20000 J/K/m3
317.4 K | 1721700 ± 20000 J/K/m3
317.5 K | 1722100 ± 20000 J/K/m3
317.6 K | 1721900 ± 20000 J/K/m3
317.7 K | 1721900 ± 20000 J/K/m3
317.8 K | 1721800 ± 20000 J/K/m3
317.9 K | 1721500 ± 20000 J/K/m3
318 K | 1721300 ± 20000 J/K/m3
318.1 K | 1721300 ± 20000 J/K/m3
318.2 K | 1721200 ± 20000 J/K/m3
318.3 K | 1721100 ± 20000 J/K/m3
318.41 K | 1721000 ± 20000 J/K/m3
318.5 K | 1721100 ± 20000 J/K/m3
318.6 K | 1721300 ± 20000 J/K/m3
318.7 K | 1721400 ± 20000 J/K/m3
318.8 K | 1721400 ± 20000 J/K/m3
318.9 K | 1721100 ± 20000 J/K/m3
